# Reference: ChEMBL document CHEMBL4177622, “Enhanced radical scavenging activity of a procyanidin B3 analogue comprised of a dimer of planar catechin” (Bioorg Med Chem Lett, 2017)
# Assay: Antioxidant activity assessed as second order rate constant for galvinoxyl radical scavenging activity in presence of deaerated conditions by UV-Vis spectrophotometric analysis
# Format: functional
row,Structure (SMILES),K
1,CC1(C)O[C@H]2[C@H](c3c(O)cc(O)c4c3O[C@@H]3c5cc(O)c(O)cc5C(C)(C)O[C@H]3C4)c3c(O)cc(O)cc3O[C@@H]2c2cc(O)c(O)cc21,2.85 ×10² /mol/s
2,CC1(C)O[C@H]2Cc3c(O)cc(O)c([C@@H]4c5c(O)cc(O)cc5O[C@H](c5ccc(O)c(O)c5)[C@H]4O)c3O[C@@H]2c2cc(O)c(O)cc21,1.89 ×10² /mol/s
3,CC1(C)O[C@H]2Cc3c(O)cc(O)cc3O[C@@H]2c2cc(O)c(O)cc21,1.5 ×10² /mol/s
4,Oc1cc(O)c2c(c1)O[C@H](c1ccc(O)c(O)c1)[C@@H](O)C2,2.6 ×10¹ /mol/s
5,Oc1cc(O)c2c(c1)O[C@H](c1ccc(O)c(O)c1)[C@@H](O)[C@@H]2c1c(O)cc(O)c2c1O[C@H](c1ccc(O)c(O)c1)[C@@H](O)C2,1 ×10² /mol/s
